From ChEMBL document CHEMBL6096684, “Targeting IspD for Anti-infective and Herbicide Development: Exploring Its Role, Mechanism, and Structural Insights” (J Med Chem, 2025) come the findings set out here.

pIC50: −log10 of the molar value.

A short description of assay [1]: Inhibition of Arabidopsis thaliana IspD.
Assay [2] is described as follows: Inhibition of Plasmodium falciparum IspD.
Assay [3] is described as follows: Inhibition of Plasmodium vivax IspD.
Assay [4] can be described thus: Inhibition of Plasmodium falciparum 3D7 IspD.
Assay [5] can be described thus: Inhibition of wild type Plasmodium falciparum IspD extracted from Escherichia coli BL21 (DE3).

Consider `Oc1c(Br)cc(Br)cc1-c1ccno1`, for which, in assay [1], the negative logarithm of the IC50 (pIC50) is 3.92.

Regarding `O=c1c2ccccc2sn1-c1cccc(-c2ccc(Cl)cc2)c1`, the pIC50 in assay [2] is 7.14; in assay [3], 7.24; in assay [4] it was 5.96.

In assay [1], `O=C(O)c1cnn2c(O)c(Cc3ccccc3)c(Cl)nc12` had a pIC50 of 3.56.

As to `Oc1ccc(Br)cc1-c1ccno1`, the pIC50 in assay [1] was under 3.30.

On to `COc1ccc2nc(NC(=O)c3cc(-c4ccccc4O)n[nH]3)sc2c1`, for which the negative-log IC50 (pIC50) in assay [1] is 5.74.

Molecule `O=C(O)[C@H]1Cc2c([nH]c3ccccc23)[C@@H](c2ccc(Cl)cc2Cl)N1` had a pIC50 in assay [5] of 6.77.

The molecule `O=C(O)[C@@H]1Cc2c([nH]c3ccccc23)[C@@H](c2ccc(Cl)cc2Cl)N1` gave a pIC50 in assay [5] of 6.60.

Turning to `Cc1ccc(-n2sc3ccccc3c2=O)cc1S(=O)(=O)N1CCOCC1`, the pIC50 in assay [2] was 6.35; in assay [3], 7.35; in assay [4] it was 5.37.

`O=C(O)[C@H]1Cc2c([nH]c3ccccc23)[C@H](c2ccc(Cl)cc2Cl)N1` had a pIC50 in assay [5] of 7.33.

In assay [1], `CCN(CC)CCCC(C)n1c(N)c(-c2nc3ccccc3[nH]2)c2nc(C#N)c(C#N)nc21` (configuration not stated) showed a pIC50 of 4.30.

`CC(C)CCn1c(N)c(-c2nc3ccccc3[nH]2)c2nc3ccccc3nc21` gave a pIC50 in assay [1] of 5.80.

For `Oc1ccc(Br)cc1-c1cc(C(F)(F)F)no1`, the pIC50 in assay [1] is 3.38.

Molecule `Oc1c(Br)cc(Br)cc1-c1[nH]c(Br)c(Br)c1Br` [PENTABROMOPSEUDILIN] showed a pIC50 in assay [3] of 4.32.

The molecule `Cc1ccc(C)n1-c1ccc([N+](=O)[O-])cc1C(=O)O` gave a pIC50 in assay [2] of 3.57.

In turn, `Oc1c(Cl)cc(Cl)cc1-c1[nH]c(Br)c(Br)c1Br` [TRIBROMODICHLOROPSEUDILIN] had a pIC50 in assay [3] of 4.25.

In assay [1], `Oc1c(Br)cc(Br)cc1-c1cc(C(F)(F)F)no1` showed a negative logarithm of the IC50 (pIC50) of 5.03.

Take `COc1ccc2nc(NC(=O)COc3ccc(-c4ccccc4)cc3)sc2c1`: the pIC50 in assay [1] was 5.20.

Turning to `N#Cc1cnn2c(O)c(Cc3ccccc3)c(Cl)nc12`, the pIC50 in assay [1] is 4.46.
